For 18 molecules, EC50 results are on record in patent US12570642B2, “GLP-IR modulating compounds” (Gilead Sciences, Inc., priority 2021, dated 2026).

For this experiment, the target named is GLP-1R (Homo sapiens, UniProt P43220). The experiment is described as follows: GLP-1R Activation - cAMP Assay. The following applies: cAMP increase in CHO cells stably expressing GLP-1R; each compound run on one of the two cAMP assays (Assay 1 or Assay 2, not specified). The format is cell-based. The protocol:
GLP-1R Activation—cAMP Assay 1
GLP-1R activation by compounds of the present disclosure were quantified by measuring cAMP increase in CHO cells stably expressing GLP-1R (MultiSpan product #C1267-1a). The cells were harvested and plated in growth medium (DMEM/F-12 (Corning product #10-090-CV) supplemented with 10% FBS (HyClone product #SH30071-03), penicillin/streptomycin (Corning product #30-002CI) and 10 μg/ml puromycin (Gibco product #A11138-03)) at 1,000 cells/well in a 384-well plate (Greiner product #781080). The cells were then incubated overnight at 37° C., 5% CO2. The next day, the medium was removed and the cells were washed with DPBS (Corning product #21-031-CM) before adding the assay medium (HBSS, Corning product #21-023-CV) with 20 mM Hepes (Gibco product #15630-080) and 0.1% BSA (Rockland Immunochemicals product #BSA-1000)). Following the medium change, the cells were incubated for 1 hour at 37° C., 5% CO2. The tested GLP-1 compound was added to the cells in a 10-point dose response followed by a 30 minutes incubation at 37° C., 5% CO2. cAMP concentration increase was then detected using Cisbio's cAMP Gs Dynamic Kit (product #62AM4PEC) according to the manufacturer's protocol. The response was plotted against the log of the agonist concentration and fitted to a sigmoidal equation to determine the EC50.
Background: Cyclic AMP is a second messenger, typically raised through Gs and lowered through Gi signalling.

Sequence of GLP-1R (P43220 24-463): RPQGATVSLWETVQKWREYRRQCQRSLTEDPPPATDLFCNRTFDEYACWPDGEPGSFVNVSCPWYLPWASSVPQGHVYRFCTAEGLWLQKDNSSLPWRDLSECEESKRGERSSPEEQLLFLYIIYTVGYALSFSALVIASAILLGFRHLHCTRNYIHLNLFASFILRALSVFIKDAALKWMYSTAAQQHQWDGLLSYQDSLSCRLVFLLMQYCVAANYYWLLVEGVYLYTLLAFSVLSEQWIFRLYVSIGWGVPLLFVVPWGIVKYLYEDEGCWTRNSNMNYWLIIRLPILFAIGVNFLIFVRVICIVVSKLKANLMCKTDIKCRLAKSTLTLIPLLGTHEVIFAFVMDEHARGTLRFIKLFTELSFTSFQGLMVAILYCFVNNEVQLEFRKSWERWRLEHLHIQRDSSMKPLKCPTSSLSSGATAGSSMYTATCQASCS

By EC50 is commonly meant the concentration needed to bring the measured effect to its halfway point. Low values mean higher potency in that assay, high ones lower potency in that assay. The molecule `CC(C)COCCn1c(Cc2cc(F)c(-c3cccc(OCc4ccc(Cl)cc4F)n3)cc2F)nc2ccc(C(=O)O)cc21` [Example 566, 2-(4-(6-((4-chloro-2-fluorobenzyl)oxy)pyridin-2-yl)-2,5-difluorobenzyl)-1-(2-isobutoxyethyl)-1H-benzo[d]imidazole-6-carboxylic acid] showed a concentration giving a half-maximal response (EC50) of 4.09 nM.
As for `CC(C)COCCn1c(Cc2cc(F)c(-c3cccc(OCc4cnc(-n5ccnn5)cc4Cl)n3)cc2F)nc2ccc(C(=O)O)cc21` [Example 569, 2-(4-(6-((4-chloro-6-(1H-1,2,3-triazol-1-yl)pyridin-3-yl)methoxy)pyridin-2-yl)-2,5-difluorobenzyl)-1-(2-isobutoxyethyl)-1H-benzo[d]imidazole-6-carboxylic acid], the figure is 0.987 nM; as for `COCCn1c(Cc2cc(F)c(-c3cccc(OCc4ccc(C)nc4C)n3)cc2F)nc2ccc(C(=O)O)cc21` [Example 25], 7.55 nM; as for `CC1(C)COC[C@H]1n1c(Cc2cc(F)c(-c3ccc(F)c(OCc4ccc(-n5ccnn5)cc4F)n3)cc2F)nc2ccc(C(=O)O)cc21` [Example 163, (S)-2-(2,5-difluoro-4-(5-fluoro-6-((2-fluoro-4-(1H-1,2,3-triazol-1-yl)benzyl)oxy)pyridin-2-yl)benzyl)-1-(4,4-dimethyltetrahydrofuran-3-yl)-1H-benzo[d]imidazole-6-carboxylic Acid], 0.039 nM.
In turn, `COc1cc(Cl)ncc1COc1cccc(-c2cc(F)c(Cc3nc4ccc(C(=O)O)cc4n3[C@H]3COCC3(C)C)cc2F)n1` (single isomer, unassigned) [Example 290B] gave a concentration giving a half-maximal response (EC50) of 0.764 nM.
For the molecule `CC1(C)COC[C@H]1n1c(Cc2c(F)cc(-c3ccnc(OCc4ccc(Cl)cc4F)n3)c(F)c2F)nc2c(F)cc(C(=O)O)cc21` [Example 196, (S)-2-(4-(2-((4-chloro-2-fluorobenzyl)oxy)pyrimidin-4-yl)-2,3,6-trifluorobenzyl)-1-(4,4-dimethyltetrahydrofuran-3-yl)-4-fluoro-1H-benzo[d]imidazole-6-carboxylic acid], the EC50 is 0.508 nM.
As for `Cc1cc(F)c(COc2cccc(-c3cc(F)c(Cc4nc5ccc(C(=O)O)cc5n4[C@@H]4COCC4(C)C)cc3F)n2)cc1F` [Example 456, (S)-2-(4-(6-((2,5-difluoro-4-methylbenzyl)oxy)pyridin-2-yl)-2,5-difluorobenzyl)-1-(4,4-dimethyltetrahydrofuran-3-yl)-1H-benzo[d]imidazole-6-carboxylic acid], the figure is 0.332 nM; as for `CC1(C)COC[C@H]1n1c(Cc2cc(F)c(-c3cccc(OCc4ccc(-n5ccnn5)cc4F)n3)cc2F)nc2ccc(C(=O)O)cc21` [Example 167, (S)-2-(2,5-difluoro-4-(6-((2-fluoro-4-(1H-1,2,3-triazol-1-yl)benzyl)oxy)pyridin-2-yl)benzyl)-1-(4,4-dimethyltetrahydrofuran-3-yl)-1H-benzo[d]imidazole-6-carboxylic Acid], 0.027 nM; as for `CC1(C)COC[C@H]1n1c(Cc2cc(F)c(-c3cccc(OCc4ncc(Cl)cc4F)n3)cc2F)nc2c(F)cc(C(=O)O)cc21` [Example 287, (S)-2-(4-(6-((5-chloro-3-fluoropyridin-2-yl)methoxy)pyridin-2-yl)-2,5-difluorobenzyl)-1-(4,4-dimethyltetrahydrofuran-3-yl)-4-fluoro-1H-benzo[d]imidazole-6-carboxylic acid], 0.051 nM.
As for `N#Cc1ccc(COc2cccc(-c3cc(F)c(Cc4nc5ccc(C(=O)O)cc5n4C4COC5(COC5)C4)cc3F)n2)c(F)c1` (stereo not drawn) [Example 202, 2-(4-(6-((4-cyano-2-fluorobenzyl)oxy)pyridin-2-yl)-2,5-difluorobenzyl)-1-(2,5-dioxaspiro[3.4]octan-7-yl)-1H-benzo[d]imidazole-6-carboxylic acid], the figure is 4.01 nM; as for `C[C@H]1COC[C@H]1n1c(Cc2cc(F)c(-c3ccc(F)c(OCc4ccc(C#N)cc4F)n3)cc2F)nc2ccc(C(=O)O)cc21` [Example 486, 2-(4-(6-((4-cyano-2-fluorobenzyl)oxy)-5-fluoropyridin-2-yl)-2,5-difluorobenzyl)-1-((3S,4R)-4-methyltetrahydrofuran-3-yl)-1H-benzo[d]imidazole-6-carboxylic acid], 0.054 nM.
`N#Cc1ccc(COc2cccc(-c3cc(F)c(Cc4nc5ccc(C(=O)O)cc5n4C4CCOCC45CC5)cc3F)n2)c(F)c1` (stereo not drawn) [Example 82, 2-(4-(6-((4-cyano-2-fluorobenzyl)oxy)pyridin-2-yl)-2,5-difluorobenzyl)-1-(5-oxaspiro[2.5]octan-8-yl)-1H-benzo[d]imidazole-6-carboxylic Acid] came in with an EC50 of 1.6 nM.
The molecule `CC1(C)COC[C@H]1n1c(Cc2cc(F)c(-c3ccc(F)c(OCc4ccc(C#N)cc4F)n3)cc2F)nc2c(F)cc(C(=O)O)cc21` [Example 116, 2-[[4-[6-[(4-cyano-2-fluoro-phenyl)methoxy]-5-fluoro-2-pyridyl]-2,5-difluoro-phenyl]methyl]-3-[(3S)-4,4-dimethyltetrahydrofuran-3-yl]-7-fluorobenzimidazole-5-carboxylic Acid] registered an EC50 of 0.005 nM.
Turning to `CC1(C)COC[C@H]1n1c(Cc2ccc(-c3ccc(F)c(OCc4cnc(-n5ccnn5)cc4Cl)n3)cc2F)nc2c(F)cc(C(=O)O)cc21` [Example 154, (S)-2-(4-(6-((4-chloro-6-(1H-1,2,3-triazol-1-yl)pyridin-3-yl)methoxy)-5-fluoropyridin-2-yl)-2-fluorobenzyl)-1-(4,4-dimethyltetrahydrofuran-3-yl)-4-fluoro-1H-benzo[d]imidazole-6-carboxylic Acid], a half-maximal response (EC50) required 0.034 nM.
Molecule `COC(=O)N1Cc2ccc(COc3cccc(-c4cc(F)c(Cc5nc6ccc(C(=O)O)cc6n5[C@@H]5COCC5(C)C)cc4F)n3)cc2C1` [Example 529, (S)-2-(2,5-difluoro-4-(6-((2-(methoxycarbonyl)isoindolin-5-yl)methoxy)pyridin-2-yl)benzyl)-1-(4,4-dimethyltetrahydrofuran-3-yl)-1H-benzo[d]imidazole-6-carboxylic acid] came in with an EC50 of 0.598 nM.
For `CC1(C)COC[C@H]1n1c(Cc2ccc(-c3ccc(F)c(OCc4cnc(-n5ccnn5)cc4Cl)n3)cc2F)nc2ccc(C(=O)O)cc21` [Example 161, (S)-2-(4-(6-((4-chloro-6-(1H-1,2,3-triazol-1-yl)pyridin-3-yl)methoxy)-5-fluoropyridin-2-yl)-2-fluorobenzyl)-1-(4,4-dimethyltetrahydrofuran-3-yl)-1H-benzo[d]imidazole-6-carboxylic Acid], the EC50 was 0.015 nM.
For `CC1(C)COC[C@H]1n1c(Cc2cc(F)c(-c3cccc(OCc4cnc(-c5cnn(C(F)F)c5)cc4Cl)n3)cc2F)nc2ccc(C(=O)O)cc21` [Example 552, (S)-2-(4-(6-((4-chloro-6-(1-(difluoromethyl)-1H-pyrazol-4-yl)pyridin-3-yl)methoxy)pyridin-2-yl)-2,5-difluorobenzyl)-1-(4,4-dimethyltetrahydrofuran-3-yl)-1H-benzo[d]imidazole-6-carboxylic acid], it took 0.99 nM to reach a half-maximal effect (EC50).
As for `Cc1cc(Cc2nc3c(F)cc(C(=O)O)cc3n2C[C@@H]2CCO2)c(Cl)cc1-c1ccc(F)c(OCc2ccc(C#N)cc2F)n1` [Example 142, (S)-2-(2-chloro-4-(6-((4-cyano-2-fluorobenzyl)oxy)-5-fluoropyridin-2-yl)-5-methylbenzyl)-4-fluoro-1-(oxetan-2-ylmethyl)-1H-benzo[d]imidazole-6-carboxylic Acid], the figure is 0.894 nM.
